# Data published in patent US8222244B2, “Staurosporine derivatives as inhibitors of FLT3 receptor tyrosine kinase activity” (Novartis AG, priority 2001, dated 2012).
# Target: T1, human Flt-3 (Homo sapiens, UniProt P36888)
# T1 construct: expresses the amino acid region amino acids 563-993 of the intra-cytoplasmic kinase domains of human Flt-3; made in house; host or cells: Sf9 insect cells (baculovirus, pFbacG01 donor vector)
# T1 sequence (P36888 563-993): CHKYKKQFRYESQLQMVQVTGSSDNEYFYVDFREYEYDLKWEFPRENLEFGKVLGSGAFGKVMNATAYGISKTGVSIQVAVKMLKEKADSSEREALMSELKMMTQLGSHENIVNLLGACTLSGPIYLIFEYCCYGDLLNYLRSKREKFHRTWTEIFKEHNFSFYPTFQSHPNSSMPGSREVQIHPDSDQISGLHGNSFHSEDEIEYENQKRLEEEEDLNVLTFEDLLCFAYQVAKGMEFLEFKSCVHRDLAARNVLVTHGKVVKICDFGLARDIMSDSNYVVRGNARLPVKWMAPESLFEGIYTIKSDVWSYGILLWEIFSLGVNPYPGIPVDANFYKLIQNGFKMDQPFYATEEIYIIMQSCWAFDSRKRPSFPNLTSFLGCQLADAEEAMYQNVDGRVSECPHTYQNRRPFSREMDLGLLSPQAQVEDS
# Assay: Tyrosine protein kinase assay with purified GST-Flt-3 (33P incorporation)
# Type: biochemical
# Settings: at a 1.0 micromolar concentration
# Method: ATP into appropriate substrates.
# The coding sequences for the cytoplasmic domain of Flt-3 was amplified by PCR from human c-DNA libraries (Clontech). The amplified DNA fragments and the pFbacG01 vector were made compatible for ligation by digestion with BamH1 and Hind III. […] The production of the viruses, the expression of proteins in Sf9 cells and the purification of the GST-fused proteins were performed as following:
# (Generation of Bac- to Bac GST-fusion vectors); pFbacG01, pFbacGST2T and pFbacGSTx3 Bac-to-Bac™ donor vectors were generated from pAcG1, pAcG2T and pAcG3X respectively, which facilitate the expression of GST-fusion proteins with the possibility of cleavage with thrombin (pFbacGT2) or factor Xa (pFbacGSTx3) while pFbacG01 expresses no proteolytic cleavage site. These were generated in house by isolation of the DNA fragment containing the gene for GST with the C-terminal protease and restriction sites by restriction enzyme digestion of the relevant PharMingen baculovirus donor vector with EcoRV and EcoRI. This EcoRV/EcoRI fragment was ligated into the pFastBac1 vector which had been restriction digested with BamHI, blunt-ended by Klenow reaction and subsequently digested with EcoRI to generate a blunt-ended/EcoRI vector. (Production of virus); Transfer vectors containing the kinase domains were transfected into the DH10Bac cell line (GIBCO) and plated on selective agar plates. Colonies without insertion of the fusion sequence into the viral genome (carried by the bacteria) are blue. Single white colonies were picked and viral DNA (bacmid) isolated from the bacteria by standard plasmid purification procedures. Sf9 cells or Sf21 cells were then transfected in 25 cm^2 flasks with the viral DNA using Cellfectin reagent. (Determination of small scale protein expression in Sf9 cells); Virus containing media was collected from the transfected cell culture and used for infection to increase its titer. Virus containing media obtained after two rounds of infection was used for large-scale protein expression. For large-scale protein expression 100 cm^2 round tissue culture plates were seeded with 5×10^7 cells/plate and infected with 1 mL of virus-containing media (approx. 5 MOIs). After 3 days the cells were scraped off the plate and centrifuged at 500 rpm for 5 min. Cell pellets from 10-20, 100 cm^2 plates, were resuspended in 50 mL of ice-cold lysis buffer (25 mMTris-HCl, pH7.5, 2 mMEDTA, 1% NP-40, 1 mM DTT, 1 mMP MSF). The cells were stirred on ice for 15 min and then centrifuged at 5000 rpms for 20 min.
# ATP 0.1 μCi). […] ATP into appropriate substrates. […] Subsequently, 40 μL of the reaction mixture were transferred onto Immobilon-PVDF membrane (Millipore, Bedford, Mass., USA) previously soaked for 5 min with methanol, rinsed with water, then soaked for 5 min with 0.5% H3PO4 and mounted on vacuum manifold with disconnected vacuum source. After spotting all samples, vacuum was connected and each well rinsed with 200 μL 0.5% H3PO4. Membranes were removed and washed 4× on a shaker with 1.0% H3PO4, once with ethanol. Membranes were counted after drying at ambient temperature, mounting in Packard TopCount 96-well frame, and addition of 10 μL/well of Microscint™ (Packard). […] One unit of protein kinase activity is defined as 1 nmole of ^33P ATP transferred from [γ^33P] ATP to the substrate protein per minute per mg of protein at 37° C.
row,Molecule,Flt3 Inhibition (percent inhibition of Flt3 kinase activity)
1,"COC1C(N(C)C(=O)c2ccc(O)cc2)CC2OC1(C)n1c3ccccc3c3c4c(c5c6ccccc6n2c5c31)C(=O)NC4 [165815-73-6, N-[(9S,10R,11R,13R)-2,3,10,11,12,13-Hexahydro-10-methoxy-9-methyl-1-oxo-9,13-epoxy-1H,9H-diindolo[1,2,3-gh:3′,2′,1′-lm]pyrrolo[3,4-j][1,7]benzodiazonin-11-yl]-4-hydroxy-N-methyl-benzamide]",91%
2,"(9a,10b,11b,13a)-11-[(N-Acetyl-a-muramoyl)methylamino]-2,3,10,11,12,13-hexahydro-10-methoxy-9-methyl-9,13-epoxy-1H,9H-diindolo[1,2,3-gh:3′,2′,1′-lm]pyrrolo[3,4-j][1,7]benzodiazonin-1-one [149622-53-7]",91%
3,"(9a,10b,11b,13a)-11-[[N-Acetyl-4,6-di-O-acetyl-1-O-(phenylmethyl)-a-muramoyl]methylamino]-2,3,10,11,12,13-hexahydro-10-methoxy-9-methyl-9,13-epoxy-1H,9H-diindolo[1,2,3-gh:3′,2′,1′-lm]pyrrolo[3,4-j][1,7]benzodiazonin-1-one [149622-61-7]",70%
4,"COC1C(N(C)C(=O)CCN)CC2OC1(C)n1c3ccccc3c3c4c(c5c6ccccc6n2c5c31)C(=O)NC4.Cl (stereo not drawn) [124078-41-7, [9S-(9a,10b,11b,13a)]-3-Amino-N-(2,3,10,11,12,13-hexahydro-10-methoxy-9-methyl-1-oxo-9,13-epoxy-1H,9H-diindolo[1,2,3-gh:3′,2′,1′-lm]pyrrolo[3,4-j][1,7]benzodiazonin-11-yl)-N-methyl-propanamide, monohydrochloride]",99%
5,"C=CCNC(=S)N(C)C1CC2OC(C)(C1OC)n1c3ccccc3c3c4c(c5c6ccccc6n2c5c31)C(=O)NC4 (stereo not drawn) [120685-39-4, (9a,10b,11b,13a)-N-(2,3,10,11,12,13-Hexahydro-10-methoxy-9-methyl-1-oxo-9,13-epoxy-1H,9H-diindolo[1,2,3-gh:3′,2′,1′-lm]pyrrolo[3,4-j][1,7]benzodiazonin-11-yl)-N-methyl-N′-2-propenyl-thiourea]",93%
6,"COC1C(N(C)C(=O)c2cccc([N+](=O)[O-])c2)CC2OC1(C)n1c3ccccc3c3c4c(c5c6ccccc6n2c5c31)C(=O)NC4 (stereo not drawn) [120685-15-6, (9a,10b,11b,13a)-N-(2,3,10,11,12,13-Hexahydro-10-methoxy-9-methyl-1-oxo-9,13-epoxy-1H,9H-diindolo[1,2,3-gh:3′,2′,1′-lm]pyrrolo[3,4-j][1,7]benzodiazonin-11-yl)-N-methyl-3-nitro-benzamide]",74%
7,"COC1C(N(C)C(=O)c2ccc(C(=O)[O-])cc2)CC2OC1(C)n1c3ccccc3c3c4c(c5c6ccccc6n2c5c31)C(=O)NC4.[Na+] (stereo not drawn) [120751-44-2, [9S-(9a,10b,11b,13a)]-4-[[(2,3,10,11,12,13-Hexahydro-10-methoxy-9-methyl-1-oxo-9,13-epoxy-1H,9H-diindolo[1,2,3-gh:3′,2′,1′-lm]pyrrolo[3,4-j][1,7]benzodiazonin-11-yl)methylamino]carbonyl]-benzoic acid, monosodium salt]",90%
8,"COC1C(=O)CC2OC1(C)n1c3ccccc3c3c4c(c5c6ccccc6n2c5c31)C(=O)NC4 [178276-05-6, (9S,10S,13R)-2,3,9,10,12,13-Hexahydro-10-methoxy-9-methyl-9,13-epoxy-1H,11H-diindolo[1,2,3-gh:3′,2′,1′-lm]pyrrolo[3,4-j][1,7]benzodiazonine-1,11-dione]",88%
9,"COC1C(N(C)C(=O)c2cc([N+](=O)[O-])cc([N+](=O)[O-])c2)CC2OC1(C)n1c3ccccc3c3c4c(c5c6ccccc6n2c5c31)C(=O)NC4 (stereo not drawn) [120685-18-9, [9S-(9a,10b,11b,13a)]-N-(2,3,10,11,12,13-Hexahydro-10-methoxy-9-methyl-1-oxo-9,13-epoxy-1H,9H-diindolo[1,2,3-gh:3′,2′,1′-lm]pyrrolo[3,4-j][1,7]benzodiazonin-11-yl)-N-methyl-3,5-dinitro-benzamide]",63%
